In PMC3474888 (Pharmaceutical research, 2012):

System: tubulin
Assay: tubulin assembly inhibition, turbidimetry at […] nm
Type: biochemical, Bos taurus
Settings: read-out: Inhibition of / Tubulin Assembly IC50±SD

IC50: 10 ± 0.6 µM
Structure (SMILES): COc1ccc(N(C)c2nc(C)nc3cc[nH]c23)cc1 [compound 3, N-(4-Methoxyphenyl)-N,2-dimethyl-5H-pyrrolo[3,2-d]pyrimidin-4-amine]
